{"source": "the supplement of paper PMC10307832", "experiment_in_all_cases": "relative viability (nuclei count vs DMSO), 5 days (fraction); higher = more cells survive", "key": {"[1]": {"tested_on": "NCI-H1666", "in_short": "(§1)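 Nuclei were stained with Hoechst during a one-step fixation (final 0.05% Triton X-100, 1% formaldehyde, 1 ug/ml Hoechst) carried out 5 days after dosing, then counted on 4× images. The cells, lung cancer lines in 1536-well plates, had been dosed by pin tool the day after seeding with one drug alone or a fixed anchor-drug dose plus five library-drug doses (not always all listed) in √10 steps. Relative viability is the nuclei count in treated wells divided by that in vehicle wells, and each value is the median of duplicate plates.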"}, "[2]": {"tested_on": "NCI-H1944", "in_short": "as §1"}, "[3]": {"tested_on": "NCI-H1993", "in_short": "as §1"}, "[4]": {"tested_on": "NCI-H2126", "in_short": "as §1"}, "[5]": {"tested_on": "NCI-H441", "in_short": "as §1"}, "[6]": {"tested_on": "NCI-H647", "in_short": "as §1"}, "[7]": {"tested_on": "NCI-H661", "in_short": "as §1"}, "[8]": {"tested_on": "NCI-H727", "in_short": "as §1"}, "[9]": {"tested_on": "PC-14", "in_short": "as §1"}, "[10]": {"tested_on": "RERF-LC-KJ", "in_short": "as §1"}, "[11]": {"tested_on": "SK-MES-1", "in_short": "as §1"}}}
{"smiles": "CCNC(=O)c1noc(-c2cc(C(C)C)c(O)cc2O)c1-c1ccc(CN2CCOCC2)cc1", "note": "[Luminespib] + C[C@]1(O)C[C@@H](c2nc(-c3ccc4ccc(-c5ccccc5)nc4c3)c3c(N)nccn32)C1 [Linsitinib] (partner 1 µM)", "values": [{"measurement": "relative viability", "setting": "[1]; first compound 0.02 µM", "result": 0.751}, {"measurement": "relative viability", "setting": "[1]; first compound 0.06325 µM", "result": 0.803}, {"measurement": "relative viability", "setting": "[1]; first compound 0.2 µM", "result": 0.511}, {"measurement": "relative viability", "setting": "[2]; first compound 0.002 µM", "result": 1.21}, {"measurement": "relative viability", "setting": "[2]; first compound 0.006325 µM", "result": 1.1}, {"measurement": "relative viability", "setting": "[2]; first compound 0.02 µM", "result": 0.791}, {"measurement": "relative viability", "setting": "[2]; first compound 0.06325 µM", "result": 1.07}, {"measurement": "relative viability", "setting": "[2]; first compound 0.2 µM", "result": 1.09}, {"measurement": "relative viability", "setting": "[3]; first compound 0.002 µM", "result": 0.829}, {"measurement": "relative viability", "setting": "[3]; first compound 0.006325 µM", "result": 0.735}, {"measurement": "relative viability", "setting": "[3]; first compound 0.02 µM", "result": 0.678}, {"measurement": "relative viability", "setting": "[3]; first compound 0.06325 µM", "result": 0.534}, {"measurement": "relative viability", "setting": "[3]; first compound 0.2 µM", "result": 0.576}, {"measurement": "relative viability", "setting": "[4]; first compound 0.002 µM", "result": 0.686}, {"measurement": "relative viability", "setting": "[4]; first compound 0.006325 µM", "result": 0.652}, {"measurement": "relative viability", "setting": "[4]; first compound 0.02 µM", "result": 0.536}, {"measurement": "relative viability", "setting": "[4]; first compound 0.06325 µM", "result": 0.761}, {"measurement": "relative viability", "setting": "[4]; first compound 0.2 µM", "result": 0.741}, {"measurement": "relative viability", "setting": "[5]; first compound 0.002 µM", "result": 0.797}, {"measurement": "relative viability", "setting": "[5]; first compound 0.006325 µM", "result": 0.5}, {"measurement": "relative viability", "setting": "[5]; first compound 0.02 µM", "result": 0.485}, {"measurement": "relative viability", "setting": "[5]; first compound 0.06325 µM", "result": 0.108}, {"measurement": "relative viability", "setting": "[5]; first compound 0.2 µM", "result": 0.0934}, {"measurement": "relative viability", "setting": "[6]; first compound 0.002 µM", "result": 1.23}, {"measurement": "relative viability", "setting": "[6]; first compound 0.006325 µM", "result": 1.26}, {"measurement": "relative viability", "setting": "[6]; first compound 0.02 µM", "result": 0.914}, {"measurement": "relative viability", "setting": "[6]; first compound 0.06325 µM", "result": 0.0924}, {"measurement": "relative viability", "setting": "[6]; first compound 0.2 µM", "result": 0.0826}, {"measurement": "relative viability", "setting": "[7]; first compound 0.002 µM", "result": 0.569}, {"measurement": "relative viability", "setting": "[7]; first compound 0.006325 µM", "result": 0.527}, {"measurement": "relative viability", "setting": "[7]; first compound 0.02 µM", "result": 0.369}, {"measurement": "relative viability", "setting": "[7]; first compound 0.06325 µM", "result": 0.395}, {"measurement": "relative viability", "setting": "[7]; first compound 0.2 µM", "result": 0.187}, {"measurement": "relative viability", "setting": "[8]; first compound 0.002 µM", "result": 0.317}, {"measurement": "relative viability", "setting": "[8]; first compound 0.006325 µM", "result": 0.258}, {"measurement": "relative viability", "setting": "[8]; first compound 0.02 µM", "result": 0.284}, {"measurement": "relative viability", "setting": "[8]; first compound 0.06325 µM", "result": 0.221}, {"measurement": "relative viability", "setting": "[8]; first compound 0.2 µM", "result": 0.211}, {"measurement": "relative viability", "setting": "[9]; first compound 0.002 µM", "result": 0.896}, {"measurement": "relative viability", "setting": "[9]; first compound 0.006325 µM", "result": 0.897}, {"measurement": "relative viability", "setting": "[9]; first compound 0.02 µM", "result": 1.09}, {"measurement": "relative viability", "setting": "[9]; first compound 0.06325 µM", "result": 0.936}, {"measurement": "relative viability", "setting": "[9]; first compound 0.2 µM", "result": 0.146}, {"measurement": "relative viability", "setting": "[10]; first compound 0.002 µM", "result": 0.9}, {"measurement": "relative viability", "setting": "[10]; first compound 0.006325 µM", "result": 0.846}, {"measurement": "relative viability", "setting": "[10]; first compound 0.02 µM", "result": 0.976}, {"measurement": "relative viability", "setting": "[10]; first compound 0.06325 µM", "result": 0.968}, {"measurement": "relative viability", "setting": "[10]; first compound 0.2 µM", "result": 0.366}, {"measurement": "relative viability", "setting": "[11]; first compound 0.002 µM", "result": 1}, {"measurement": "relative viability", "setting": "[11]; first compound 0.006325 µM", "result": 0.893}, {"measurement": "relative viability", "setting": "[11]; first compound 0.02 µM", "result": 1.13}, {"measurement": "relative viability", "setting": "[11]; first compound 0.06325 µM", "result": 0.916}, {"measurement": "relative viability", "setting": "[11]; first compound 0.2 µM", "result": 0.164}]}
